# Patent US20210047297A1, “4-(3-AMINO-6-FLUORO-1H-INDAZOL-5-YL)-1,2,6-TRIMETHYL-1,4-DIHYDROPYRIDINE-3,5-DIC ARBONITRILE COMPOUNDS FOR TREATING HYPERPROLIFERATIVE DISORDERS” (Bayer Pharma Aktiengesellschaft, priority 2018, published 2021)
# pIC50: −log10 of the molar value.
# Molecular target: T1, GST-AMPKα2/ß1/γ1 complex (full-length human AMPKα2) (Homo sapiens, UniProt P54619+P54646+Q9Y478)
# T1 construct: purchased Carna Biosciences 02-114; host or cells: baculovirus expression system
# Experiment: AMPK high ATP assay (TR-FRET-based AMPK activity inhibition assay)
# Type: biochemical
# Settings: ATP concentration of 1 mM; median; read-out: AMPK high ATP assay IC50 [mol/l] (median)
# Protocol: AMPK inhibitory activity of compounds of the present invention at an ATP concentration of 1 mM was quantified employing the TR-FRET-based AMPK activity inhibition assay as described in the following paragraphs.
# Recombinant fusion protein of N-terminal Glutathion-S-Transferase (GST) and full-length human AMPKα2 [1-552(end) amino acids of accession number NP_006243.2] co-expressed with GST-PRKAB1 [1-270(end) amino acids of accession number NP_006244.2] and PRKAG1 [1-331(end) amino acids of accession number NP_002724.1] using a baculovirus expression system, purified as GST-AMPKα2/ß1/γ1 complex by using glutathione sepharose chromatography, activated with His-tagged CaMKK1 and subsequently purified by using glutathione sepharose chromatography, was purchased from Carna Biosciences (product number 02-114) and used as kinase. As substrate for the kinase reaction biotinylated peptide biotin-Ahx-HMRSAMSFAEPG (C-terminus in amide form) was used which can be purchased e.g. form the company Biosyntan (Berlin-Buch, Germany). For the assay 50 nl of a 100 fold concentrated solution of the test compound in DMSO was pipetted into either a black low volume 384 well microtiter plate or a black 1536 well microtiter plate (both Greiner Bio-One, Frickenhausen, Germany), 2 μl of a solution of GST-AMPKα2/ß1/γ1 in aqueous assay buffer [50 mM Hepes pH 7.5, 10 mM MgCl2, 5 mM β-glycerophosphate, 2.5 mM dithiothreitol (DTT), 0.5 mM EGTA, 0.01% (w/v) bovine γ-globulin (Sigma-Aldrich, #G5009), 0.01% (v/v) Triton X-100 (Sigma-Aldrich, #T9284)] were added and the mixture was incubated for 15 min at 22° C. to allow pre-binding of the test compounds to the enzyme before the start of the kinase reaction. Then the kinase reaction was started by the addition of 3 μl of a solution of adenosine-tri-phosphate (ATP, 1.67 mM=>final conc. in the 5 μl assay volume is 1 mM), adenosine-mono-phosphate (AMP, 3.33 μM=>final conc. in the 5 μl assay volume is 2 μM), and substrate (0.83 μM=>final conc. in the 5 μl assay volume is 0.5 μM) in assay buffer and the resulting mixture was incubated for a reaction time of 30 min at 22° C. The concentration of GST-AMPK α2/ß1/γ1 was adjusted depending of the activity of the enzyme lot and was chosen appropriate to have the assay in the linear range, a typical concentration was 0.08 nM. The reaction was stopped by the addition of 3 μl of a solution of TR-FRET detection reagents (0.2 μM streptavidine-XL665 [Cisbio Bioassays, Codolet, France] and 3.33 nM anti-phosho-Serine antibody [Merck Millipore, “STK antibody”, cat. #35-002] and 3.33 nM anti mouse IgG-Tb cryptate, a Terbium-cryptate labelled anti-mouse IgG antibody [Cisbio Bioassays, Codolet, France] in an aqueous EDTA-solution (166.7 mM EDTA, 0.06 (w/v) bovine serum albumin in 50 mM HEPES pH 7.5).
# The resulting mixture was incubated 1 h at 22° C. to allow the formation of complex between the phosphorylated biotinylated peptide and the detection reagents. Subsequently the amount of phosphorylated substrate was evaluated by measurement of the resonance energy transfer from the Tb-cryptate to the streptavidine-XL665. Therefore, the fluorescence emissions at 620 nm and 665 nm after excitation at 350 nm was measured in a TR-FRET reader, e.g. a Pherastar FS (BMG Labtechnologies, Offenburg, Germany) or a Viewlux (Perkin-Elmer). The ratio of the emissions at 665 nm and at […] was taken as the measure for the amount of phosphorylated substrate. The data were normalised (enzyme reaction without inhibitor=0 inhibition, all other assay components but no enzyme=100% inhibition).
# T1 sequence (P54646 whole entry): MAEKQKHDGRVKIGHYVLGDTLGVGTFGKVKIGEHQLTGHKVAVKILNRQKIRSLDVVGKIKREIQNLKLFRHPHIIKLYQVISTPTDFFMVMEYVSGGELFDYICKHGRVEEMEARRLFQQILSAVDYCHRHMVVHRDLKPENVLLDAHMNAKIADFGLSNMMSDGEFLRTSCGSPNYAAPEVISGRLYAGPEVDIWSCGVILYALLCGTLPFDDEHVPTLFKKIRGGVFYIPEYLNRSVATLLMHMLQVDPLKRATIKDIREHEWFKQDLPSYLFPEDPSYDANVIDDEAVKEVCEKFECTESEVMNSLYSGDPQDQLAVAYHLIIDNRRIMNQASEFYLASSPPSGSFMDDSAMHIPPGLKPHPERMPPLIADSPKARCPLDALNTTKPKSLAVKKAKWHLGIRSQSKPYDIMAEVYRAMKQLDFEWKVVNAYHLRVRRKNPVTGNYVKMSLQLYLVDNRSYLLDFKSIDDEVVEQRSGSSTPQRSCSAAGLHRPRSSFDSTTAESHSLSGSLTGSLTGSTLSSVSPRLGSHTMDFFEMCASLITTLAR
# T1 sequence (Q9Y478 whole entry partner): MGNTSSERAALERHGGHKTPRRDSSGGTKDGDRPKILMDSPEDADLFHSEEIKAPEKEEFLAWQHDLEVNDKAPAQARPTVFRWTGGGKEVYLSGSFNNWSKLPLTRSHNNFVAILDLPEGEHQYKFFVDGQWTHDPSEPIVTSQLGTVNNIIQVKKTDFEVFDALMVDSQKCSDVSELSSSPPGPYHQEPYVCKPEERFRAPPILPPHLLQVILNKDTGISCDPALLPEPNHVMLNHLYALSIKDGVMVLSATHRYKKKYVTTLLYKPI
# T1 sequence (P54619 whole entry partner): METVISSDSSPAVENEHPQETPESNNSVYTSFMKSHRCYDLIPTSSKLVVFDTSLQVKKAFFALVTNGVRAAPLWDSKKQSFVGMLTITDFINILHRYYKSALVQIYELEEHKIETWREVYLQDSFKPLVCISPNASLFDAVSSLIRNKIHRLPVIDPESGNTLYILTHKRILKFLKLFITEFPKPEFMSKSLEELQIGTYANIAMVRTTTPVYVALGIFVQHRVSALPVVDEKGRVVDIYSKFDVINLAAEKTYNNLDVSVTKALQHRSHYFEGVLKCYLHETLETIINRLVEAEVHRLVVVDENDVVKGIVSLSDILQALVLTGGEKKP
row,Compound,pIC50
1,"CC1=C(C#N)C(c2cc3c(NC(=O)c4ccc(OCCN5CCCC5)cc4Cl)n[nH]c3c(C)c2F)C(C#N)=C(C)N1C [Example 20, 2-chloro-N-[5-(3,5-dicyano-1,2,6-trimethyl-1,4-dihydropyridin-4-yl)-6-fluoro-7-methyl-1H-indazol-3-yl]-4-[2-(pyrrolidin-1-yl)ethoxy]benzamide]",9.18
2,"CCc1c(F)c(C2C(C#N)=C(C)N(C)C(C)=C2C#N)cc2c(NC(=O)c3ccnn3C(C)C)n[nH]c12 [Example 28, N-[5-(3,5-dicyano-1,2,6-trimethyl-1,4-dihydropyridin-4-yl)-7-ethyl-6-fluoro-1H-indazol-3-yl]-1-(propan-2-yl)-1H-pyrazole-5-carboxamide]",6.86
3,"CCc1ccccc1C(=O)Nc1n[nH]c2c(CC)c(F)c(C3C(C#N)=C(C)N(C)C(C)=C3C#N)cc12 [Example 27, N-[5-(3,5-dicyano-1,2,6-trimethyl-1,4-dihydropyridin-4-yl)-7-ethyl-6-fluoro-1H-indazol-3-yl]-2-ethylbenzamide]",7.23
4,"C=Cc1c(F)c(C2C(C#N)=C(C)N(C)C(C)=C2C#N)cc2c(NC(=O)c3cc(C)nn3CC)n[nH]c12 [Example 25, N-[5-(3,5-dicyano-1,2,6-trimethyl-1,4-dihydropyridin-4-yl)-7-ethenyl-6-fluoro-1H-indazol-3-yl]-1-ethyl-3-methyl-1H-pyrazole-5-carboxamide]",6.82
5,"CC1=C(C#N)C(c2cc3c(NC(=O)c4cn(CCN5CCCC5)nc4C(F)(F)F)n[nH]c3c(C)c2F)C(C#N)=C(C)N1C [Example 16, N-[5-(3,5-dicyano-1,2,6-trimethyl-1,4-dihydropyridin-4-yl)-6-fluoro-7-methyl-1H-indazol-3-yl]-1-[2-(pyrrolidin-1-yl)ethyl]-3-(trifluoromethyl)-1H-pyrazole-4-carboxamide]",8.24
6,"COC(=O)C12C3C4C1C1C2C3C41C(=O)Nc1n[nH]c2c(C)c(F)c(C3C(C#N)=C(C)N(C)C(C)=C3C#N)cc12 (centres unmarked) [Example 22, methyl 4-{[5-(3,5-dicyano-1,2,6-trimethyl-1,4-dihydropyridin-4-yl)-6-fluoro-7-methyl-1H-indazol-3-yl]carbamoyl}cubane-1-carboxylate]",7.18
7,"CC1=C(C#N)C(c2cc3c(NC(=O)c4ccc(OCCN5CCCC5)cc4Cl)n[nH]c3c(I)c2F)C(C#N)=C(C)N1C [Example 4, 2-chloro-N-[5-(3,5-dicyano-1,2,6-trimethyl-1,4-dihydropyridin-4-yl)-6-fluoro-7-iodo-1H-indazol-3-yl]-4-[2-(pyrrolidin-1-yl)ethoxy]benzamide]",8.57
8,"CCc1ccccc1C(=O)Nc1n[nH]c2c(C)c(F)c(C3C(C#N)=C(C)N(C)C(C)=C3C#N)cc12 [Example 8, N-[5-(3,5-dicyano-1,2,6-trimethyl-1,4-dihydropyridin-4-yl)-6-fluoro-7-methyl-1H-indazol-3-yl]-2-ethylbenzamide]",7.82
9,"CC1=C(C#N)C(c2cc3c(NC(=O)c4cnn(CC(C)(C)O)c4C(F)(F)F)n[nH]c3c(C)c2F)C(C#N)=C(C)N1C [Example 18, N-[5-(3,5-dicyano-1,2,6-trimethyl-1,4-dihydropyridin-4-yl)-6-fluoro-7-methyl-1H-indazol-3-yl]-1-(2-hydroxy-2-methylpropyl)-5-(trifluoromethyl)-1H-pyrazole-4-carboxamide]",7.34
10,"CC1=C(C#N)C(c2cc3c(NC(=O)c4cn(CC(C)(C)O)nc4C(F)(F)F)n[nH]c3c(C)c2F)C(C#N)=C(C)N1C [Example 17, N-[5-(3,5-dicyano-1,2,6-trimethyl-1,4-dihydropyridin-4-yl)-6-fluoro-7-methyl-1H-indazol-3-yl]-1-(2-hydroxy-2-methylpropyl)-3-(trifluoromethyl)-1H-pyrazole-4-carboxamide]",8.10
11,"CC1=C(C#N)C(c2cc3c(NC(=O)Cc4ccc(C)nc4)n[nH]c3c(C)c2F)C(C#N)=C(C)N1C [Example 14, N-[5-(3,5-dicyano-1,2,6-trimethyl-1,4-dihydropyridin-4-yl)-6-fluoro-7-methyl-1H-indazol-3-yl]-2-(6-methylpyridin-3-yl)acetamide]",7.67
12,"CC1=C(C#N)C(c2cc3c(NC(=O)c4ccccc4Cl)n[nH]c3c(I)c2F)C(C#N)=C(C)N1C [Example 2, 2-chloro-N-[5-(3,5-dicyano-1,2,6-trimethyl-1,4-dihydropyridin-4-yl)-6-fluoro-7-iodo-1H-indazol-3-yl]benzamide]",7.89
13,"COCCn1cc(C(=O)Nc2n[nH]c3c(C)c(F)c(C4C(C#N)=C(C)N(C)C(C)=C4C#N)cc23)c(C(F)(F)F)n1 [Example 15, N-[5-(3,5-dicyano-1,2,6-trimethyl-1,4-dihydropyridin-4-yl)-6-fluoro-7-methyl-1H-indazol-3-yl]-1-(2-methoxyethyl)-3-(trifluoromethyl)-1H-pyrazole-4-carboxamide]",8.11
14,"CC1=C(C#N)C(c2cc3c(NC(=O)c4cn(C)nc4C(F)(F)F)n[nH]c3c(C)c2F)C(C#N)=C(C)N1C [Example 9, N-[5-(3,5-dicyano-1,2,6-trimethyl-1,4-dihydropyridin-4-yl)-6-fluoro-7-methyl-1H-indazol-3-yl]-1-methyl-3-(trifluoromethyl)-1H-pyrazole-4-carboxamide]",7.91
15,"CC1=C(C#N)C(c2cc3c(NC(=O)C45C6C7C4C4C5C6C74C(=O)N4CCN(C)CC4)n[nH]c3c(C)c2F)C(C#N)=C(C)N1C (centres unmarked) [Example 24, N-[5-(3,5-dicyano-1,2,6-trimethyl-1,4-dihydropyridin-4-yl)-6-fluoro-7-methyl-1H-indazol-3-yl]-4-(4-methylpiperazine-1-carbonyl)cubane-1-carboxamide]",7.22
16,"CC1=C(C#N)C(c2cc3c(NC(=O)c4ccc(OCCN5CCCC5)cc4)n[nH]c3c(C)c2F)C(C#N)=C(C)N1C [Example 13, N-[5-(3,5-dicyano-1,2,6-trimethyl-1,4-dihydropyridin-4-yl)-6-fluoro-7-methyl-1H-indazol-3-yl]-4-[2-(pyrrolidin-1-yl)ethoxy]benzamide]",7.87
17,"CC1=C(C#N)C(c2cc3c(NC(=O)c4c(F)cccc4Cl)n[nH]c3c(C)c2F)C(C#N)=C(C)N1C [Example 11, 2-chloro-N-[5-(3,5-dicyano-1,2,6-trimethyl-1,4-dihydropyridin-4-yl)-6-fluoro-7-methyl-1H-indazol-3-yl]-6-fluorobenzamide]",8.05
18,"CCc1c(F)c(C2C(C#N)=C(C)N(C)C(C)=C2C#N)cc2c(NC(=O)c3c(Cl)cnn3C)n[nH]c12 [Example 29, 4-chloro-N-[5-(3,5-dicyano-1,2,6-trimethyl-1,4-dihydropyridin-4-yl)-7-ethyl-6-fluoro-1H-indazol-3-yl]-1-methyl-1H-pyrazole-5-carboxamide]",6.91
19,"CC1=C(C#N)C(c2ccc3[nH]nc(NC(=O)c4ccccc4)c3c2)C(C#N)=C(C)N1 [Reference Example 1, N-[5-(3,5-dicyano-2,6-dimethyl-1,4-dihydropyridin-4-yl)-1H-indazol-3-yl]benzamide, reference compound]",6.55
20,"CC1=C(C#N)C(c2cc3c(NC(=O)C(C)c4cccnc4)n[nH]c3c(C)c2F)C(C#N)=C(C)N1C (racemic) [Example 21, (rac)-N-[5-(3,5-dicyano-1,2,6-trimethyl-1,4-dihydropyridin-4-yl)-6-fluoro-7-methyl-1H-indazol-3-yl]-2-(pyridin-3-yl)propanamide]",7.08
